Where “and” joins values, the source holds several entries; their conditions need not be identical. Equal values may be shown once. Read-outs that look alike come from different tables or passages of the source.
Legend:
Sulforhodamine = assay type: cell-based, human; conditions: human
[1] = system: L. donovani axenic amastigotes; assay: L. donovani axenic amastigote viability, 72 hour Alamar blue assay; assay type: cell-based, Leishmania donovani
VERO cells = conditions: previous report; cited from earlier work
[2] = system: LU-1 human lung carcinoma cell line; assay: Sulforhodamine; assay type: cell-based; conditions: for Cytotoxicity LU-1 CC50 / CC50: LU-1 human lung carcinoma, SRB; for CC50: read-out: Cytotoxicity LU-1 CC50
J-774 murine macrophages = assay: Cytotoxicity against murine macrophage cells; conditions: for Cytotoxicity J-774 murine macrophages CC50 / CC50: J-774, Alamar blue; for CC50: read-out: Cytotoxicity J-774 murine macrophages CC50
[3] = system: L. donovani promastigotes; assay: L. donovani promastigote viability, 72 hour Alamar blue assay; assay type: cell-based, Leishmania donovani; conditions: for IC50: read-out: L. donovani Promastigotes IC50
[4] = Cytotoxicity against murine macrophage cells; conditions: mouse
[5] = 72 hour Alamar blue, pH 5.5, 37°C
[6] = read-out: L. donovani Axenic amastigotes IC50, 72 hour Alamar blue, pH 5.5, 37°C

Row | SMILES | CC50 (Sulforhodamine; LU-1 lung carcinoma cells) | L. donovani Axenic amastigotes IC50 [1, 5] | Cytotoxicity LU-1 CC50 [2] | Cytotoxicity J-774 murine macrophages CC50 (J-774 murine macrophages) | L. donovani Promastigotes IC50 ([3]; 72 hour Alamar blue, 26°C) | IC50 ([3]; 72 hour Alamar blue, 26°C) [µM] | IC50 [1, 6] [µM] | CC50 [2] [µM] | CC50 (J-774 murine macrophages) [µM] | other results
1 | C[C@@H]1[C@H](O)[C@@H](C)/C=C/C=C/C=C/C=C/C=C/C=C/C=C/[C@H](O[C@@H]2O[C@H](C)[C@@H](O)[C@H](N)[C@@H]2O)C[C@@H]2O[C@](O)(C[C@@H](O)C[C@@H](O)[C@H](O)CC[C@@H](O)C[C@@H](O)CC(=O)O[C@H]1C)C[C@H](O)[C@H]2C(=O)O [Amphotericin B, reference compound] | > 40 µg/mL |  |  |  |  |  |  |  |  | 
2 | COc1ccc2[nH]c3ccc(C=O)cc3c2c1 [Compound 5g] |  | NA^[g] (NA (Not active): IC50 > 40 μg/mL) | NC^[h] (NC (Noncytotoxic): CC50 > 40 μg/mL) | NC (NC (Noncytotoxic): CC50 > 40 μg/mL) | 27 µg/mL | 120 |  |  |  | CC values in VERO cells (VERO cells): > 102 µg/mL
3 | COc1ccc2[nH]c3cc(O)c(C=O)cc3c2c1 [Compound 6a, lansine] |  |  |  |  |  |  |  |  |  | IC50 ([1]; Leishmania donovani, 72 h, pH 5.5, read-out: L. donovani Axenic amastigotes IC50): 11 µg/mL and 45.6 µM; CC values in VERO cells (VERO cells): > 102 µg/mL; CC50 (Sulforhodamine): 16.5 µg/mL and 68.4 µM; SI-1 (Selectivity Index-1) = CC50 (LU-1)/IC50 (amastigotes) ([2]; LU-1 vs axenic amastigotes): 2; SI-2 (Selectivity Index-2) = CC50 (J-774)/IC50 (amastigotes) (J-774 murine macrophages; J-774 vs axenic amastigotes): 2; CC50 [4]: 20 µg/mL and 82.9 µM; IC50 ([3]; Leishmania donovani, 72 h): 89.1 µM and 21.5 µg/mL
4 | O=Cc1cc2c(cc1O)[nH]c1ccccc12 [Compound 6b] |  | 11.0 µg/mL | 45 µg/mL | 21 µg/mL | 35.4 µg/mL | 168 | 52 | 213 | 99.4 | 
5 | O=Cc1cc2c(cc1O)[nH]c1ccc(C(F)(F)F)cc12 [Compound 6c] |  | 6.0 µg/mL | 21 µg/mL | 9.8 µg/mL | 7.3 µg/mL | 26.2 | 21.5 | 75.2 | 35.1 | 
6 | O=Cc1cc2c(cc1O)[nH]c1ccc(OC(F)(F)F)cc12 [Compound 6d] |  | 2.1 µg/mL | 45 µg/mL | 8.0 µg/mL | 3.7 µg/mL | 12.6 | 7.1 | 152 | 27.1 | 
7 | O=Cc1cc2c(cc1O)[nH]c1ccc([N+](=O)[O-])cc12 [Compound 6f] |  | NA (NA (Not active): IC50 > 40 μg/mL) | NC (NC (Noncytotoxic): CC50 > 40 μg/mL) | 20.0 µg/mL | NA (NA (Not active): IC50 > 40 μg/mL) |  |  |  | 78 | 
8 | O=Cc1cc2c(cc1O)[nH]c1ccc(O)cc12 [Compound 7, 2,6-Dihydroxy-9H-carbazole-3-carbaldehyde] | > 40 µg/mL |  |  |  |  |  |  |  |  | CC50 ([4]; J774 macrophage cells): 32 µg/mL and 141 µM
9 | COc1ccc2[nH]c3cc(OC)c(C=O)cc3c2c1 [Compound 8, 2,6-Dimethoxy-9H-carbazole-3-carbaldehyde] | > 40 µg/mL |  |  |  |  |  |  |  |  | CC50 ([4]; J774 macrophage cells): > 40 µg/mL
10 | COc1ccc2c(c1)c1cc(C=O)c(OC)cc1n2C [Compound 9, 2,6-dimethoxy-9-methyl-9H-carbazole-3-carbaldehyde] | > 40 µg/mL |  |  |  |  |  |  |  |  | CC50 ([4]; J774 macrophage cells): > 40 µg/mL
11 | COc1ccc2[nH]c3cc(O)c(CO)cc3c2c1 [Compound 11] |  | 10.0 µg/mL | > 60 µg/mL | NC (NC (Noncytotoxic): CC50 > 40 μg/mL) | NA (NA (Not active): IC50 > 40 μg/mL) |  | 41.1 | > 247 |  | 
12 | COc1ccc2[nH]c3cc(O)c(C)cc3c2c1 [Compound 13] |  | 11.5 µg/mL | 30 µg/mL | 20 µg/mL | 17.7 µg/mL | 78 | 50.6 | 132 | 88.1 | 
13 | CCn1c2ccccc2c2cc(C=O)ccc21 [Compound 14] |  | NA (NA (Not active): IC50 > 40 μg/mL) | 25 µg/mL | 21 µg/mL | 38.6 µg/mL | 173 |  | 112 | 94.1 | 
14 | Oc1ccc2c(c1)[nH]c1ccccc12 [Compound 15] |  | 10.0 µg/mL | 40 µg/mL | NC (NC (Noncytotoxic): CC50 > 40 μg/mL) | 28.5 µg/mL | 156 | 54.6 | 218 |  | 
15 | Cn1c2ccccc2c2ccccc21 [Compound 16] |  | NA (NA (Not active): IC50 > 40 μg/mL) | NC (NC (Noncytotoxic): CC50 > 40 μg/mL) | NC (NC (Noncytotoxic): CC50 > 40 μg/mL) | 37.0 µg/mL | 204 |  |  |  | 
16 | N=C(N)c1ccc(OCCCCCOc2ccc(C(=N)N)cc2)cc1 [Pentamidine, reference compound] | 0.5 µg/mL and 1.5 µM |  |  |  |  | 3.5 | 2.9 |  |  | 

— article PMC3565020 (ChemMedChem, 2012)
